Laboratory results reported in patent US7928141B2 (priority 2005, dated 2011).

Key:
Assay type in all cases: in vivo, human
Conditions in all cases: using only lidocaine
[1] = Anesthetic trial in general liposuction operations
Description: The above components were dissolved in a small amount (<1 mL) of distilled water and mixed homogeneously, and the mix was then diluted to 150 mL to yield the L.S.Z. solution.
50 bottles were filled each with 500 mL normal saline solution. […] The bottles were shaken respectively to mix well, yielding L.S.Z. anesthetic solution having a long duration of action.
Then, a common syringe with a 25 cm long needle was used to inject subcutaneously the above anesthetic solution in 45 sites of a […], 1.70 m in height, and 90 kg in weight. While injecting the anesthetic solution, liposuction was conducted using a liposuction tube, finally removing 18 L aspirated fat solution in total. The operation lasted for about 9 hours and the weight of the subject was reduced by 15 kg in total.

[2] = Anesthetic trial in middle area operations: liposuction in the abdomen
Description: The above components were dissolved in a small amount (<1 mL) of distilled water and mixed homogeneously, and the mixture was then diluted to 10 mL to yield the L.S.Z. solution.
10 bottles were filled each with 500 mL of normal saline solution. To each bottle was added 10 ml 2% lidocaine solution (as described in Example 1), and 1 mL of the L.S.Z. solution. The bottles were shaken respectively to mix well, yielding L.S.Z. anesthetic solution having a long duration of action.
[…] While injecting the anesthetic solution, liposuction was conducted using a liposuction tube, finally removing 3500 mL aspirated fat solution in total. The operation lasted 1 hour. When injecting, 3 injection points, the subcutaneous depth of 1-2 cm, and radiation injection around the injection point were chosen to form 3 anesthetic zones with a radius of 15 cm. After injection, the onset time shortened from the original about 1 min (using only lidocaine) down to about 5 sec, and the duration of analgesia prolonged from the original 4 hours (using only lidocaine) to about 9 days.

[3] = Anesthetic trial in large area operations: liposuction in the lower limb (buttock, thigh, calf)
Description: The above components were dissolved in a small amount (<1 mL) of distilled water and mixed homogeneously, and the mix was then diluted to 60 mL to yield the L.S.Z. solution.
20 bottles were filled each with 500 mL normal saline solution. To each bottle was added 15 mL of 2% lidocaine solution (as described in Example 1) and 3 mL of the L.S.Z. solution as prepared in this Example. The bottles were shaken respectively to mix well, yielding L.S.Z. anesthetic solution having a long duration of action.
[…] While injecting the anesthetic solution, liposuction was conducted using a liposuction tube, finally removing 6 L aspirated fat solution in total. The operation lasted for about 3 hours. When injecting, 8 injection points, the subcutaneous depth of 1-2 cm, and the radiation injection method around the injection point were chosen to form 8 anesthetic zones with a radius of 20 cm. After injection, the onset time shortened from the original about 1 min (using only lidocaine) down to around 5 sec, and the duration of analgesia prolonged from the original 4 hours (using only lidocaine) to about 9 days.

## CCN(CC)CC(=O)Nc1c(C)cccc1C [lidocaine]
[1]
  duration of analgesia: 4 h
  onset time: about 1 min
[2]
  duration of analgesia: 4 h
  onset time: about 1 min
[3]
  duration of analgesia: 4 h
  onset time: about 1 min
